Test results as given in patent US12274681B2, “Compositions and methods for reducing skin fat” (Purdue Research Foundation, priority 2016, dated 2025).

Columns and labels:
[1] = tested on: murine 3T3-L1 preadipocytes; assay: Lipid accumulation in differentiating adipocytes, Oil Red O staining and spectrometric quantification; assay type: cell-based
Experimental: Avasimibe solution was prepared by dissolving in dimethyl sulfoxide (DMSO). At day 6, preadipocytes and avasimibe-treated differentiated adipocytes were subjected to Oil Red 0 staining to visualize accumulated intracellular lipids. Oil Red 0 stained lipids were then extracted for spectrometric quantification of lipids. Intracellular lipids were decreased in a dose-dependent manner by up to 60% (FIG. 3A and FIG. 3B).

[2] = tested on: high fat diet-fed C57BL/6J obese and diabetic mice; assay: High fat diet-induced obese and diabetic mouse model; assay type: in vivo; details: for anti-diabetes treatment / anti-obesity treatment in a mouse model of obesity: summary statement
ACAT2 [3] = target: ACAT2 (Homo sapiens, UniProt O75908); details: cited from earlier work
Sequence of ACAT2 (Homo sapiens, UniProt O75908) (O75908 whole entry): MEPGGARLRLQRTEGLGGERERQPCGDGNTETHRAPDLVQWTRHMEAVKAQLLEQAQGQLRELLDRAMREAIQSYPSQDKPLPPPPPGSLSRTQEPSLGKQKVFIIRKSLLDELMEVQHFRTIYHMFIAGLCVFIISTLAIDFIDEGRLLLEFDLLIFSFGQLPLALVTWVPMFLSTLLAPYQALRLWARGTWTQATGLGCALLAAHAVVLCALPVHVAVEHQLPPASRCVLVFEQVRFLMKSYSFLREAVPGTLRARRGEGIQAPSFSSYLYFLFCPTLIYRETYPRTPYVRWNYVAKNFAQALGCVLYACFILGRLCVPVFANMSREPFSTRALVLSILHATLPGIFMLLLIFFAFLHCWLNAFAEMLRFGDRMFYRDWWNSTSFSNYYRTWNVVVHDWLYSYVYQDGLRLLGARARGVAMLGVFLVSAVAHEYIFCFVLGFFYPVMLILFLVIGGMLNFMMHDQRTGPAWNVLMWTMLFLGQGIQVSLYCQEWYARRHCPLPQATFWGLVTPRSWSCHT

mature adipocytes = assay: Lipid accumulation by Coherent Anti-Stokes Raman Scattering (CARS) microscopy; assay type: cell-based, murine
[4] = tested on: differentiated 3T3-L1 preadipocytes; assay: Real-time PCR of lipid synthesis and cholesterol uptake genes in adipocytes; assay type: cell-based, murine
Experimental: To characterize the effect of avasimibe treatment on mRNA levels of genes involved in lipid metabolism and adipocyte function, differentiated 3T3-L1 preadipocytes in the presence or absence of avasimibe (20 μM) for 6 days were subjected to real-time PCR assay for the analysis of expression of genes involved in synthesis of fatty acids and TGs such as PPARγ, sterol regulatory element binding protein 1c (SREBP1c), MGAT1, DGAT2, FAS and SCD-1.
(§1) Previous studies reported an adipogenesis-dependent increase in cholesterol accumulation in adipocytes. Similarly, adipogenesis was associated with elevated level free cholesterol with little change in CE level.

SREBP1 = assay: Western blot of SREBP1 in adipocytes; assay type: cell-based
Experimental: Because SREBP1 plays a key role in de novo fatty acids and TG synthesis and the data in FIG. 6 show a potential inhibitory role of avasimibe in suppression of SREBP1-downstream genes involved in fatty acid and TG synthesis, the ability of avasimibe treatment to alter SREBP1 protein expression and de novo fatty acid synthesis in adipocytes was tested.

adipocytes [5] = assay: De novo fatty acid synthesis, glucose-d7 with stimulated Raman scattering (SRS) microscopy; assay type: cell-based; details: SRS imaging
From the text: Using deuterium labeled glucose-d7, the effect of avasimibe on de novo fatty acid synthesis in adipocytes treated with or without avasimibe was examined. Glucose-d7 incorporated fatty acids were visualized by stimulated Raman scattering (SRS) microscopy.

adipocytes [6] = assay: Cholesterol and cholesterol ester accumulation in adipocytes during adipogenesis; assay type: cell-based
From the text: as §1

ACAT = assay: 25-NBD cholesterol-based ACAT assay in adipocytes; assay type: cell-based
From the text: as §1

[7] = mouse, in vivo, ip, 20 mg/kg
From the text: Tissue- and isoform-specific regulation of ACATs has been proposed to be therapeutic strategy for cholesterol dysregulated diseases, such as atherosclerosis. However, the therapeutic role of ACATs in obesity has never been explored.

[8] = tested on: high-fat diet-induced obesity mouse model; assay: Pair-feeding study in high-fat diet-induced obesity mouse model; assay type: in vivo, mice
From the text: To do this, mice were pair-fed with the amount of food consumed by avasimibe-administrated mice for 8 days.

3T3-L1 adipocytes = assay: Proteomic analysis of adipocytes by LC MS/MS; assay type: cell-based, Mus musculus; details: 10 μM
Experimental: 3T3-L1 preadipocytes were induced to differentiate into mature adipocytes with the same culture condition as described elsewhere. […] Avasimibe or DMSO was replaced freshly every 48 h. Each condition was cultured in triplicate. On day 6, adipocytes were washed with 1×PBS and scraped off the culture dishes. Adipocyte cell pellets were collected after centrifugation and subsequently digested with trypsin (Sigma-Aldrich, St. Louis MO, USA) at the Ratio of 1:50 (μg/μg) Trypsin to Protein. The tryptic peptides after trypsin digestion were separated on a nano LC system (1100 Series LC, Agilent Technologies, Santa Clara, CA) as described previously (D'Aquila, et al. 2015). Briefly, peptides were concentrated with Agilent 300SB-C18 enrichment column and separated with C18 reversed phase ZORBAX 300SB-C18 column. High resolution hybrid ion trap mass spectrometer LTQ-Orbitrap LX (Thermo Fisher Scientific, Waltham MA, USA) was employed to identify the peptides in the data-dependent positive acquisition mode. These experiments were done in Bindley Bioscience Center. We used the MaxQuant computational proteomics platform version 1.5.3.17 (Cox and Mann, 2008) to analyze the results from LC MS/MS analysis. The Mus musculus (24754 entries) sequence from UNIPROT retrieved on Sep. 1, 2015 and a common contaminants database were used as our reference databases. MaxQuant was set with parameters as follows: minimum peptides length was set to seven amino acids, and “Match between runs” interval was set to one minute; The FASTA databases were randomized and 1% of protein false discovery rate was allowed; With trypsin digestion, two missed cleavages were accepted; Three modifications per peptide were allowed, including one fixed modification as “Iodoethanol” and variable modifications as “Oxidation (M)” and “Acetyl (Protein N-term)”; Initial precursor was set to 0.07 and fragment mass tolerance set to 0.02 Da; Data were analyzed with “Label-free quantification” (LFQ) checked. The MaxQuant results were used in in-house script to remove all the common contaminant proteins and to calculate the average LFQ intensity values for the biological replicates and log transform [log2(x)]. The missing values were left blank unless indicated. A two tailed student t-test was performed on the LFQ intensity.

ACAT1 [9] = target: T1, ACAT1 (Homo sapiens, UniProt P35610); details: cited from earlier work
T1 sequence (P35610 1-550): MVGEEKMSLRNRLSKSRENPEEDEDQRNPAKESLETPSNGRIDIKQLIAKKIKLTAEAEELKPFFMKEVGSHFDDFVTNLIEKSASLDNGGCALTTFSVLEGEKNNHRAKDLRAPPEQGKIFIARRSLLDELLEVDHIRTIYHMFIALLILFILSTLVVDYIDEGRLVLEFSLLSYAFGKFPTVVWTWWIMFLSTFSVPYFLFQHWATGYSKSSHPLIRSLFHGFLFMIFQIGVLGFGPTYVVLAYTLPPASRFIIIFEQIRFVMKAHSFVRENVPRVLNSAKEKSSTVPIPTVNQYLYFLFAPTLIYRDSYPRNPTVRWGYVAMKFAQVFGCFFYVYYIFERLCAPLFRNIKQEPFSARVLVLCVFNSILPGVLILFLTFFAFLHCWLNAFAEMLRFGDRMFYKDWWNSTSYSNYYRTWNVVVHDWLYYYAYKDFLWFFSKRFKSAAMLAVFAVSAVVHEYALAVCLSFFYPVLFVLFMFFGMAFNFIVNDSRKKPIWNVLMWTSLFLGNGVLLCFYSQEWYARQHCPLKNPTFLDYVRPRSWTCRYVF

[10] = cited from earlier work
cytochrome P450 (CYP450) = details: Sahi, et al. 2004; cited from earlier work
ACAT1 [11] = assay: Lentivirus-mediated ACAT1 knockdown in adipocytes (Oil Red O, real-time PCR); assay type: cell-based, mouse
Experimental: The direct role of ACAT1 on synthesis of fatty acids and TGs in adipocytes by lentivirus-mediated ACAT1 knockdown using its specific shRNA was tested.

ACAT2 [12] = assay: ACAT2 knockdown in adipocytes (Oil Red O, real-time PCR); assay type: cell-based, mouse
[13] = daily i.p. 20 mg/kg, about 2-week

With CCCCCCCCCCC(C)(C)C(=O)Nc1c(OC)cc(OC)cc1OC [CI-976, 2,2-Dimethyl-N-(2,4,6-trimethoxyphenyl) dodecanamide] the “lipid accumulation (Oil Red O)” value ([1]; 0, 5, 15 and 20 μM for 6 days) was “decrease in lipid accumulation”, the anti-diabetes treatment [2] was “highly effective” and the “anti-obesity treatment in a mouse model of obesity” value [2] was “highly effective”. The IC50 (ACAT2 [3]) was under 1000 nM.

In the case of CC(C)c1cc(C(C)C)c(CC(=O)NS(=O)(=O)Oc2c(C(C)C)cccc2C(C)C)c(C(C)C)c1 [avasimibe], the “decrease of intracellular lipids (Oil Red O)” value ([1]; avasimibe 0, 1, 5, and 20 μM for 6 days, dose-dependent) is reported as “up to 60%”, the “lipid accumulation by CARS microscopy” value (mature adipocytes) is reported as “inhibited lipid accumulation was confirmed” and the “mRNA levels of genes involved in lipid synthesis (PPARγ, SREBP1c, MGAT1, DGAT2, FAS, SCD-1)” value ([4]; 20 μM for 6 days) is reported as “marked decrease”. The “mRNA levels of cholesterol uptake genes SR-BI and CD-36” value ([4]; vs control adipocytes) was “marked decrease”, the “level of 125 kDa inactive precursor form of SREBP1” value (SREBP1) was “elevated levels” and the “LD accumulation and glucose-d7 signal in LDs (de novo fatty acid synthesis)” value (adipocytes [5]) was “reduced level”. For the same molecule, the “CE accumulation in adipocytes” value (adipocytes [6]) was “complete inhibition”, the “cholesterol level in adipocytes” value (adipocytes [6]) was “significantly reduced level” and the “ACAT activity (fluorescence-labeled CE accumulation)” value (ACAT) was “inhibited the ACAT activity”. For the same molecule, the HOMA-IR values ([2]; 2-week administration) was “improved”, the blood glucose ([2]; 2-week administration) was “marked reduction” and the glucose tolerance ([2]; 2-week administration) was “improved glucose tolerance”. For the same molecule, the insulin levels ([2]; 2-week administration) was “marked reduction”, the “decrease in food intake” value ([2]; daily i.p. 20 mg/kg) was “approximately 50%” and the energy expenditure ([2]; daily i.p. 20 mg/kg) was “reduced energy expenditure”. The “reduction or suppression in total body weight gain” value ([2]; daily i.p. 20 mg/kg body weight, about 2-week) was “about 25%”, the “white adipose tissue (inguinal, epididymal, retroperitoneal) weight” value [2, 13] was “significant loss” and the “whole body fat mass” value [2, 13] was “significant loss”. For the same molecule, the circulating leptin level ([2]; mouse, in vivo) was “markedly suppressed”, the “serum CE” value ([2]; mouse, in vivo) was “decrease” and the “serum TG” value ([2]; mouse, in vivo) was “decrease”. For the same molecule, the serum free cholesterol ([2]; mouse, in vivo) was “decrease”, the anti-diabetes treatment [2] was “highly effective” and the “anti-obesity treatment in a mouse model of obesity” value [2] was “highly effective”. The respiratory exchange ratio ([2]; vs control mice) was “reduced respiratory exchange ratio”, the “liver toxicity by alanine transaminase (ALT) assay” value [7] was “no noticeable liver toxicity” and the “blood glucose of pair-fed group relative to avasimibe-treated mice” value ([8]; 8 days) was “didn't reach to the level found from avasimibe-treated mice”. The fecal energy content ([8]; 8 days) was “little change”, the “fecal excretion and fecal energy excretion” value ([8]; figure legend FIG. 23C, 23D) was “suppressed” and the “Acyl-CoA dehydrogenase protein level reduction” value (3T3-L1 adipocytes) was 56%. The “Acyl-CoA synthetase long-chain family member 1 protein level reduction” value (3T3-L1 adipocytes) was 86%, the FAS protein level (3T3-L1 adipocytes) was “only identified in the control group” and the “acetyl-CoA acyltransferase 1 protein level reduction” value (3T3-L1 adipocytes) was 61%. For the same molecule, the “adiponectin protein level reduction” value (3T3-L1 adipocytes) was 84%, the “carnitine O-acetyltransferase protein level” value (3T3-L1 adipocytes) was “only identified in the control group” and the “cytochrome B5 Reductase 3 and superoxide dismutase 1 protein levels” value (3T3-L1 adipocytes) was “not altered significantly”. For the same molecule, the “cytochrome B5 Type A protein level reduction” value (3T3-L1 adipocytes) was 67%, the “enoyl CoA hydratase short chain 1 protein level reduction” value (3T3-L1 adipocytes) was 64% and the “fatty acid binding protein 4 protein level reduction” value (3T3-L1 adipocytes) was 64%. The “hydroxyacyl-CoA dehydrogenase protein level reduction” value (3T3-L1 adipocytes) was 64%, the “hydroxysteroid (17-13) dehydrogenase 4 protein level reduction” value (3T3-L1 adipocytes) was 38% and the “sterol carrier protein 2 downregulation” value (3T3-L1 adipocytes) was 36%. The IC50 (ACAT1 [9]) was 10000 nM, the IC50 (ACAT2 [3]) was 2500 nM and the “safety when administered to rats, dogs, and humans” value ([10]; in vivo) was “generally considered safe”. The hypercholesterolemia ([10]; oral) was “effectively lowered”, the “effect on body weight, food intake and insulin resistance” value ([10]; orally administrated) was “no effect” and the “inhibition of cytochrome P450 (CYP450)” value (cytochrome P450 (CYP450)) was “known to inhibit”.

For “ACAT1 shRNA: mouse ACAT1 shRNA sequence (SEQ ID NO:5), lentivirus-mediated ACAT1 knockdown (CCGGCCAACCAGAGACUAAACAUAUCUCGAGAUAUGUUUAGUCUCUGGUUGGUUUUUUG; listed as Mus musculus)”, the “suppression of lipid accumulation vs control ShRNA adipocytes (Oil Red O)” value (ACAT1 [11]; ACAT1 knockdown) was “up to 40%”, the “mRNA levels of genes involved in lipid synthesis” value (ACAT1 [11]; ACAT1 knockdown, real-time PCR) was “marked decrease” and the ACAT2 expression level (ACAT1 [11]; ACAT1 shRNA) was “no influence”.

For “ACAT2 shRNA: mouse ACAT2 shRNA sequence (SEQ ID NO:6), ACAT2 knockdown (CCGGUGCGGUGGUUCAUGAGUAUAUCUCGAGAUAUACUCAUGAACCACCGCAUUUUUUG; listed as Mus musculus)”, the “mRNA levels of genes involved in TG synthesis” value (ACAT2 [12]) was “dramatic reduction” and the “suppression of lipid accumulation vs control ShRNA adipocytes (Oil Red O)” value (ACAT2 [12]) was “up to 55%”.
